Experimental data: publication PMC9513230, “Inhibition of Plasmodium falciparum Hsp70-Hop partnership by 2-phenylthynesulfonamide” (Frontiers in Molecular Biosciences, 2022)

Key:
[1] = target: T1, PfHop (Plasmodium falciparum, UniProt Q8ILC1); experiment: SPR equilibrium binding to immobilized PfHop; settings: SPR, ligand PfHop immobilized, 25°C; read-out: KD
T1 construct: His; made in house; host or cells: E. coli XL1 Blue
T1 sequence (Q8ILC1 1-564): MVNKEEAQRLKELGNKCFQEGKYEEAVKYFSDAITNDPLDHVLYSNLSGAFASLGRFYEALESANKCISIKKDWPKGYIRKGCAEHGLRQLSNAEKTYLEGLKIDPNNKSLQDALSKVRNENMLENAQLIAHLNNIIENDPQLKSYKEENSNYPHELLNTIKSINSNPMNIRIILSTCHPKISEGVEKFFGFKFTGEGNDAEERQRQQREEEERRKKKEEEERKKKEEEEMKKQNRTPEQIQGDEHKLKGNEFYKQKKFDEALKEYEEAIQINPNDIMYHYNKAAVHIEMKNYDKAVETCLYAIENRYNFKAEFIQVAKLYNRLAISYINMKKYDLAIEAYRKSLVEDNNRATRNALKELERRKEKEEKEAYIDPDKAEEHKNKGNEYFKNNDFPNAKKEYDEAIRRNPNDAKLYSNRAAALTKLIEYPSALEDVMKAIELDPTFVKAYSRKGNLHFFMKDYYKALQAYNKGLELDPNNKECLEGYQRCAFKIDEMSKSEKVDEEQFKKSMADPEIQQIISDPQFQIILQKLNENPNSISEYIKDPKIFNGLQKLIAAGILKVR
Procedure: The steady-state equilibrium binding kinetics for the inhibitors on either PfHsp70-1 or PfHop were investigated using BioNavis Navi 420A ILVES multi-parametric surface plasmon resonance (MP-SPR) system (BioNavis, Finland) following a previously described method ([Lebepe et al., 2020]; [Chakafana et al., 2021]). Briefly, filter-sterilized de-gassed PBS (4.3 mM Na2HPO4, 1.4 mM KH2PO4, 137 mM NaCl, 3 mM KCl, 0.005% (v/v) Tween 20, and 20 mM EDTA; pH 7.4) was used as running buffer for the assay. The ligand (0.1 μg/ml of PfHsp70-1/PfHop) was immobilized onto a carboxymethyl dextran (CMD 3-D) gold sensor chip through amine coupling. PES was injected (flow rate of 50 μl/min) as analyte at varying final concentrations (0, 1.25, 2.5, 5, 10, 20 nM). […] Steady-state equilibrium was achieved after allowing the interaction to occur for 8 min at 25°C, followed by dissociation for 4 min at 25°C, respectively. The data generated were analyzed using Data Viewer (BioNavis, Finland) after subtraction of baseline (signals generated on the chip surface without protein immobilized and buffer without inhibitor). The resultant sensorgrams were analyzed to determine the equilibrium binding affinities using Trace Drawer software version 1.8 (Ridgeview Instruments; Sweden).

[2] = target: PfHsp70-1NBD (Plasmodium falciparum, UniProt Q8IB24); experiment: SPR equilibrium binding to immobilized PfHsp70-1NBD; settings: ligand PfHsp70-1NBD immobilized, 25°C
PfHsp70-1NBD, sequence (Q8IB24 entry or part of it): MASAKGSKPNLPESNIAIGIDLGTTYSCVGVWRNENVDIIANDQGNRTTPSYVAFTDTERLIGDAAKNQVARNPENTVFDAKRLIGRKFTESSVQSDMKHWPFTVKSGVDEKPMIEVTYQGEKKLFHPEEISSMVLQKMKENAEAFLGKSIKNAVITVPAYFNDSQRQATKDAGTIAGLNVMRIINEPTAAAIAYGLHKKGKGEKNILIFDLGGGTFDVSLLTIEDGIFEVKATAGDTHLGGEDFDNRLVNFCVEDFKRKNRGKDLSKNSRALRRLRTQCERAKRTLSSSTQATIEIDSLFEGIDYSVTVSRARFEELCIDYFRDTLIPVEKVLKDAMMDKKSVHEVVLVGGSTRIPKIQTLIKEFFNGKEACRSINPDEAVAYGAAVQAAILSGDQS
Procedure: The steady-state equilibrium binding kinetics for the inhibitors on either PfHsp70-1 or PfHop were investigated using BioNavis Navi 420A ILVES multi-parametric surface plasmon resonance (MP-SPR) system (BioNavis, Finland) following a previously described method ([Lebepe et al., 2020]; [Chakafana et al., 2021]). Briefly, filter-sterilized de-gassed PBS (4.3 mM Na2HPO4, 1.4 mM KH2PO4, 137 mM NaCl, 3 mM KCl, 0.005% (v/v) Tween 20, and 20 mM EDTA; pH 7.4) was used as running buffer for the assay. The ligand (0.1 μg/ml of PfHsp70-1/PfHop) was immobilized onto a carboxymethyl dextran (CMD 3-D) gold sensor chip through amine coupling. […] Similarly, as controls nucleotides (5 µM ATP/ADP) and a known P. falciparum Hsp70 inhibitor, (−)-Epigallocatechin-3-gallate (EGCG; [Zininga et al., 2017b]) were similarly injected at varying final concentrations (0, 1.25, 2.5, 5, 10, 20 nM) over the chip surface. […] The data generated were analyzed using Data Viewer (BioNavis, Finland) after subtraction of baseline (signals generated on the chip surface without protein immobilized and buffer without inhibitor). The resultant sensorgrams were analyzed to determine the equilibrium binding affinities using Trace Drawer software version 1.8 (Ridgeview Instruments; Sweden).

[3] = target: PfHsp70-1-PfHop association (Plasmodium falciparum, UniProt Q8IB24+Q8ILC1); experiment: ELISA for the direct association of PfHsp70-1 and PfHop; type: biochemical
PfHsp70-1-PfHop association, sequence (Q8IB24 entry or part of it, one chain of several): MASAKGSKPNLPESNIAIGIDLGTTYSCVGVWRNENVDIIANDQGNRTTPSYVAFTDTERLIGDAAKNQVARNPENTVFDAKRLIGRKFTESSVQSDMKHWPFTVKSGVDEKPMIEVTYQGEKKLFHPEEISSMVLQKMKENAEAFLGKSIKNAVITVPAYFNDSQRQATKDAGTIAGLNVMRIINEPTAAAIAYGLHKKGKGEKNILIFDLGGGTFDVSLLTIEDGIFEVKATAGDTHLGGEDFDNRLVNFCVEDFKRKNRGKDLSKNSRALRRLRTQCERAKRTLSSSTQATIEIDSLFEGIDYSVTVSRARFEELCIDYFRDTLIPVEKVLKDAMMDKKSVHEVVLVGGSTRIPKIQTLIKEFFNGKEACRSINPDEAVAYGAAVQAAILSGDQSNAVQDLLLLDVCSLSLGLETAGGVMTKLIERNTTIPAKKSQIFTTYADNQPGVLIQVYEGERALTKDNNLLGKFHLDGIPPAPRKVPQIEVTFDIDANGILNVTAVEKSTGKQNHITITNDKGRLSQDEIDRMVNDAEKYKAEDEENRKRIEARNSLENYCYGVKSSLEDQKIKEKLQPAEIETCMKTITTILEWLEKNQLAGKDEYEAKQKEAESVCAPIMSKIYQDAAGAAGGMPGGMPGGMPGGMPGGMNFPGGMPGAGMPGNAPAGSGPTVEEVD
Procedure: An enzyme-linked immunosorbent assay (ELISA) was used to validate the effect of PES on the direct association of PfHsp70-1 and PfHop following a previously described protocol ([Mabate et al., 2018]). Briefly, ligand (5 μg/ml of PfHsp70-1) suspended in 5 mM sodium bicarbonate (NaHCO3) at pH 9.5 was noncovalently immobilized onto a 96 well plate overnight at 4 C. BSA (5 μg/ml) was used as a ligand for the negative control. The wells were washed with 150 µl TBST which contains (Tris-buffered saline- Tween (TBST; 20 mM Tris HCl, pH 7.5, 500 mM NaCl supplemented with 0.1% Tween 20) prior to blocking with 5% fat-free milk in TBST and incubated at 25 C for 1 h. The wells were washed using TBST for a total of 10 min. Varying concentrations (0–1,000 nM) of analyte PfHop were added to the wells and incubated for 2 h at 25 °C. To remove the unbound analyte, the plate was washed with 150 µl TBST three times before the addition of rabbit-raised α-PfHop antibody (1: 4,000) followed by incubation at 25°C for 1 h. Subsequently, the wells were washed with 150 µl TBST three times before the addition of 100 µl secondary HRP conjugated goat-raised α-rabbit antibody (1: 4,000) and incubated for 45 min at 25 °C. The substrate, 3,3’5,5’ –tetramethylbenzidine (TMB) (Bio Scientific, United States) was added into the wells and incubated for 2 min at 25 C. Color development was monitored by recording absorbance readings at 370 nm at 5 min time intervals for 30 min using a SpectraMax M3 Microplate reader (Molecular Devices, United States). To determine the effect of the inhibitor, the assay was conducted in the presence of 25 µM) of PES. […] Furthermore, the assay was repeated interchanging the ligand and analyte to validate data reproducibility. The generated data were analyzed taking into account the background signal generated by BSA which served as the control protein. The absorbance values obtained at the highest concentration of each analyte were averaged to represent maximum (100%) binding. Titration curves were then generated using GraphPad Prism 9.3.1 (GraphPad Software, United States). The relative binding affinities of PES under each experimental setting were normalized relative to the affinity estimated for assay conducted in the absence of nucleotide at the highest concentration of PfHop. Statistical analysis was conducted to establish significant differences at p < 0.05 using a student t-test.

[4] = system: Asexual P. falciparum strain 3D7 parasites; experiment: Parasite growth inhibition assay (SYBR Gold); type: cell-based; settings: Plasmodium falciparum; P. falciparum 3D7, asexual blood stage, 96 h, n = 3; read-out: IC50 parasite growth
Procedure: Parasite growth without any drug present, which allowed the parasites to proliferate unrestricted, was used as negative drug control. SYBRTM Gold DNA stain (Invitrogen, ThermoFisher Scientific Inc., Germany) was used to measure the proliferation of the parasites compared to the controls as previously described ([[…] al., 2004]). Fluorescence was measured using a TECAN Spark® multimode microplate reader (Tecan Trading AG, Switzerland) and the data were analyzed using SigmaPlot, version 12 (Systat Software Inc., IL, United States).

[5] = target: T1, PfHop; experiment: Intrinsic fluorescence analysis of PfHop tertiary structure; settings: PfHop 4 µM with 20 µM PES, excitation 295 nm; apo state 339 nm
Procedure: The effect of PES on the tertiary structural conformation of recombinant PfHsp70-1 and PfHop proteins relative to the nucleotide-dependent conformations were assessed by monitoring intrinsic fluorescence as previously described ([Zininga et al., 2016]; [Lebepe et al., 2020]). […] The assay was repeated in the presence of 20 µM PES. Fluorescence emission spectra were monitored at 300–400 nm after initial excitation at 295 nm. The spectra data collected from seven spectral scans were averaged and processed taking into account the baseline (effect of buffer in the absence of protein).

[6] = system: PfHsp70-1; experiment: MDH heat-induced aggregation suppression (holdase chaperone activity); type: biochemical, Plasmodium falciparum; settings: MDH aggregation at 51°C, 360 nm; PES 5-100 nM
Procedure: In the current study, we investigated the effect of PES on the holdase chaperone activity of PfHsp70-1. The assay was initiated by adding 1,25 µM MDH and 0,75 µM PfHsp70-1 to the assay buffer (50 mM Tris-HCl, 100 mM NaCl; pH 7.4) and heated to 51°C. Aggregation of MDH was monitored as a function of light scattering at 360 nm over 30 min at 51°C in a SpectraMax M3 (Molecular Devices, United States) microplate spectrometer. The assay was repeated at varying final concentrations (5, 15, 25, 50, 100 nM) of PES. The chaperone function of PfHsp70-1 under various experimental conditions was compared to the activity of the chaperone recorded in the absence of nucleotide. Statistical analysis was conducted using a student t-test and a p < 0.05 represented functionally significant variation.

`NS(=O)(=O)C#Cc1ccccc1` [PES, 2-Phenylthynesulfonamide] was tested, and the Kd [1] was 707 ± 70 nM, the Kd [2] was 7390 ± 90 nM and the “Effect on association of PfHsp70-1 and PfHop” value ([3]; 25 µM nucleotide or inhibitor) was “abrogated the interaction of PfHsp70-1 and PfHop”. It also gave an IC50 ([3]; ligand PfHop, analyte PfHsp70-1) of 38.1 ± 3.6 nM, an IC50 ([3]; ligand PfHsp70-1, analyte PfHop) of 32.4 ± 2.1 nM and an IC50 [4] of 38700 ± 700 nM. For the same molecule, the Fluorescence emission peak [5] was 340 nm and the “Effect on holdase chaperone activity of PfHsp70-1” value [6] was “inhibited the chaperone activity of PfHsp70-1 in a concentration-dependent fashion”.
